From ChEMBL document CHEMBL1122941, “Design, synthesis, and pharmacological activities of 2-substituted 4-phenylquinolines as potential antidepressant drugs” (J Med Chem, 1985) come the findings set out here.

Each structure is given as a SMILES string.

Data set [1] in a line: Lethal dose was evaluated against reserpine induced hypothermia in mice by intraperitoneal administration. Particulars: mouse, in vivo, ip. Type of data set: toxicity, organism-based.
For data set [2], the system named is Mus musculus. Kind of data set: Effective dose was evaluated for its antagonism to reserpine induced hypothermia in mice by intraperitoneal administration. The data set is classed as functional. Particulars: ip.
Data set [3] is described as follows: Therapeutic index as the ratio of LD50 to that of ED50 values.

In the case of `CN(C)CCCSc1cc(-c2ccccc2)c2ccccc2n1.Cl`, the LD50 in data set [1] amounted to 189 mg/kg. The ED50 in data set [2] is greater than 50 mg/kg.

In the case of `Cl.c1ccc(-c2cc(N3CCNCC3)nc3ccccc23)cc1`, the LD50 in data set [1] is 152 mg/kg. The therapeutic index (LD50/ED50) in data set [3] stood at 12.7. The molecule further displayed an ED50 in data set [2] of 12 mg/kg.

In data set [1], `CN(C)CCCNc1cc(-c2ccccc2)c2ccccc2n1.Cl` yielded an LD50 of 100 mg/kg. In data set [2], the ED50 is greater than 50 mg/kg.

`CCN(CC)Cc1cc(-c2ccccc2)c2ccccc2n1.Cl` displayed an LD50 in data set [1] of 163 mg/kg. In addition, in data set [3], the therapeutic index (LD50/ED50) amounted to 7.76. Also, the ED50 in data set [2] was greater than 50 mg/kg.

In turn, `CN(C)CCCOc1cc(-c2ccccc2)c2ccccc2n1.Cl` gave an LD50 in data set [1] of 200 mg/kg. In addition, in data set [2], the ED50 is greater than 50 mg/kg.

In turn, `CN(C)CCNc1cc(-c2ccccc2)c2ccccc2n1.Cl` registered an LD50 in data set [1] of 102 mg/kg. Also, the therapeutic index (LD50/ED50) in data set [3] was 3.92. The molecule also returned an ED50 in data set [2] of 26 mg/kg.

Consider `CN(C)CCSc1cc(-c2ccccc2)c2ccccc2n1.Cl`, for which the LD50 in data set [1] is 198 mg/kg. Moreover, the therapeutic index (LD50/ED50) in data set [3] is 4.7. In data set [2], this molecule came in with an ED50 of 42.1 mg/kg.

In data set [1], `CN(C)CCN(C)c1cc(-c2ccccc2)c2ccccc2n1.Cl` displayed an LD50 of 98 mg/kg. For the same molecule, the therapeutic index (LD50/ED50) in data set [3] came to 3.63. The molecule further had an ED50 in data set [2] of 27 mg/kg.

In turn, `CN(C)CCOc1cc(-c2ccccc2)c2ccccc2n1.Cl` had an LD50 in data set [1] of 202 mg/kg. Moreover, the therapeutic index (LD50/ED50) in data set [3] is 10.9. In data set [2], the ED50 turned out to be 18.5 mg/kg.

As to `Cl.O=c1n(CCCN2CCN(c3cc(-c4ccccc4)c4ccccc4n3)CC2)nc2ccccn12`, in data set [1], the LD50 turned out to be 390 mg/kg. In addition, the therapeutic index (LD50/ED50) in data set [3] came to 9.7. In addition, the ED50 in data set [2] came out at 40.2 mg/kg.

As to `Cl.ClCCCN1CCN(c2cc(-c3ccccc3)c3ccccc3n2)CC1`, the LD50 in data set [1] amounted to 385 mg/kg. Further, the therapeutic index (LD50/ED50) in data set [3] was determined as 21.4. The molecule further came in with an ED50 in data set [2] of 18 mg/kg.

In the case of `CN(C)CCCN(C)c1cc(-c2ccccc2)c2ccccc2n1.Cl`, the LD50 in data set [1] was determined as 110 mg/kg. In data set [2], this molecule showed an ED50 greater than 50 mg/kg.

For `CN(C)CCCN1c2ccccc2CCc2ccccc21` [IMIPRAMINE], the 50% effect level in data set [2] (ED50) was put at a dose of 21 mg/kg.

In data set [1], `c1ccc2nc(N3CCNCC3)ccc2c1` [QUIPAZINE] came in with an LD50 of 135 mg/kg. The molecule further registered an ED50 in data set [2] of 35.4 mg/kg.

For `O=c1n(CCCN2CCN(c3cccc(Cl)c3)CC2)nc2ccccn12` [TRAZODONE], in data set [2], the ED50 was greater than 50 mg/kg.

The term LD50 denotes the dose expected to kill half of the subjects tested. What is called ED50 is the dose that gives a 50% effect, or the effect in half of the subjects. A low value points to an effect at a small dose.
